Consider 12 compounds from PubChem BioAssay (NCI).

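Dose response: 5 concentrations. Exposure: 48 h. Format: 96-well plates. Endpoint: linear interpolation; highest concentration if not reached. GI50 = concentration required for 50% inhibition of growth. TGI: concentration producing complete growth inhibition.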

Among the test systems are A498 renal; ACHN renal; CAKI-1 renal; HCT-116 colon; HOP-62 NSCLC; HS 578T breast; IGROV1 ovarian; MCF7 breast; NCI-H522 lung; SK-OV-3 ovarian.
Assay in all cases: DTP human tumour cell line panel, 48 h

The GI50 is the concentration at which growth is held to half of that of the control. The TGI is the concentration giving total growth inhibition. A higher TGI goes with less potent growth arrest. On to `O=C(/C(=C/c1cccc([N+](=O)[O-])c1)c1ccccc1)c1ccccc1`, for which the GI50 with A498 renal was 2690 nM; with ACHN renal, 2300 nM; in the experiment on CAKI-1 renal it was 3180 nM; with HCT-116 colon it was 2010 nM; in the experiment on HOP-62 NSCLC, 2870 nM; in the experiment with HS 578T breast, 3890 nM. For the same compound, the GI50 with IGROV1 ovarian is 3380 nM; in the experiment on MCF7 breast, 3340 nM; in the experiment on NCI-H522 lung, 1910 nM; in the experiment with SK-OV-3 ovarian, 3690 nM. Besides, the TGI with A498 renal is 12.9 µM; in the experiment with ACHN renal, 5.41 µM; with CAKI-1 renal, 10.2 µM; in the experiment with HCT-116 colon, 4.25 µM; in the experiment on HOP-62 NSCLC it was 7.56 µM; in the experiment with HS 578T breast, above 100 µM. Further, the concentration for total growth inhibition (TGI) with IGROV1 ovarian worked out at 27.8 µM; with MCF7 breast, 13.3 µM; in the experiment with NCI-H522 lung, 3.77 µM; with SK-OV-3 ovarian it was 10.2 µM.
Regarding `COc1cc2c(c(OC)c1OC)-c1c(cc3c(c1OC)OCO3)C1OC2C(C)C1C` (stereo not given) (tested in a mixture with another compound), the TGI in the experiment on A498 renal, in the experiment on ACHN renal, in the experiment on CAKI-1 renal, in the experiment on HCT-116 colon, with HOP-62 NSCLC and in the experiment with HS 578T breast was above 100 µM in each case. For the same compound, the TGI in the experiment on IGROV1 ovarian, with MCF7 breast, in the experiment on NCI-H522 lung and in the experiment with SK-OV-3 ovarian was above 100 µM throughout.
Take `Cc1ccc(NC(=O)c2sc3nc(C)c(C(O)c4ccccc4)cc3c2N)cc1` (stereo not given): the GI50 in the experiment with A498 renal is 233 nM; in the experiment on ACHN renal it was 658 nM; in the experiment on CAKI-1 renal, 450 nM; in the experiment on HCT-116 colon, 381 nM; in the experiment with HOP-62 NSCLC it was 716 nM; in the experiment with HS 578T breast, 327 nM. Further, the GI50 in the experiment on IGROV1 ovarian is 634 nM; in the experiment with MCF7 breast, 368 nM; in the experiment on NCI-H522 lung, 617 nM; in the experiment with SK-OV-3 ovarian, 768 nM. Moreover, the TGI with A498 renal worked out at 1.04 µM; in the experiment with ACHN renal, 20.2 µM; with CAKI-1 renal it was 25.9 µM; in the experiment on HCT-116 colon it was 12.2 µM; with HOP-62 NSCLC, 23.6 µM; in the experiment with HS 578T breast, 10.3 µM. Also, the TGI was 36.8 µM in the experiment on IGROV1 ovarian, above 57.6 µM in the experiment on MCF7 breast, above 48.7 µM in the experiment with NCI-H522 lung and 30.6 µM with SK-OV-3 ovarian.
`CC[C@H](C)[C@H]1O[C@]2(C=C[C@@H]1C)C[C@@H]1C[C@@H](C/C=C(\C)[C@@H](O[C@H]3C[C@H](OC)[C@@H](O[C@H]4C[C@H](OC)[C@@H](NC)[C@H](C)O4)[C@H](C)O3)[C@@H](C)/C=C/C=C3\CO[C@@H]4[C@H](O)C(C)=C[C@@H](C(=O)O1)[C@]34O)O2`: the GI50 with A498 renal is 2680 nM; in the experiment with ACHN renal, 2730 nM; in the experiment on CAKI-1 renal, 1890 nM; in the experiment on HCT-116 colon it was 2000 nM; in the experiment on HOP-62 NSCLC, 1750 nM; with HS 578T breast, 2310 nM. Besides, the GI50 in the experiment with IGROV1 ovarian was 3060 nM; with MCF7 breast it was 1850 nM; with NCI-H522 lung it was 1750 nM; in the experiment with SK-OV-3 ovarian, 3630 nM. For the same compound, the TGI in the experiment with A498 renal was found to be 11.6 µM; with ACHN renal it was 10.8 µM; in the experiment on CAKI-1 renal, 5.02 µM; in the experiment with HCT-116 colon, 5.12 µM; with HOP-62 NSCLC, 4 µM; in the experiment on HS 578T breast it was 6.56 µM. Further, the TGI in the experiment with IGROV1 ovarian is 12 µM; in the experiment with MCF7 breast, 4.34 µM; in the experiment on NCI-H522 lung, 3.73 µM; in the experiment with SK-OV-3 ovarian, 13.9 µM.
For the compound `CCCCCN(CCCCC)CC(O)c1ccc(Cl)c2ccccc12` (stereo not given), the GI50 in the experiment with A498 renal was 10300 nM; in the experiment on ACHN renal, 10300 nM; in the experiment with CAKI-1 renal, 3350 nM; with HCT-116 colon, 2130 nM; in the experiment with HOP-62 NSCLC, 13100 nM; in the experiment on HS 578T breast it was 10800 nM. Further, the GI50 with IGROV1 ovarian is 4920 nM; with MCF7 breast it was 6890 nM; with NCI-H522 lung, 14400 nM; in the experiment on SK-OV-3 ovarian, 13800 nM. Further, the TGI with A498 renal stood at 29.3 µM; in the experiment on ACHN renal it was 22.5 µM; in the experiment on CAKI-1 renal it was 18.6 µM; in the experiment on HCT-116 colon it was 13.1 µM; with HOP-62 NSCLC, 26.5 µM; with HS 578T breast, 33.9 µM. Besides, the total growth inhibition concentration (TGI) with IGROV1 ovarian worked out at 24.3 µM; in the experiment with MCF7 breast it was 20.5 µM; in the experiment with NCI-H522 lung, 32.1 µM; with SK-OV-3 ovarian, 37.5 µM.
With `Nc1ncn(C2CC(O)C(CO)O2)c(=O)n1` (stereo not given), the TGI was above 332 µM in the experiment with A498 renal; above 375 µM with ACHN renal; above 375 µM in the experiment with CAKI-1 renal; above 375 µM in the experiment on HCT-116 colon; above 319 µM in the experiment on HOP-62 NSCLC; 23.5 µM in the experiment on HS 578T breast. Also, the TGI is 372 µM with IGROV1 ovarian, above 375 µM in the experiment with MCF7 breast, 218 µM with NCI-H522 lung and 182 µM in the experiment with SK-OV-3 ovarian.
For `CS(=O)(=O)c1cc(=O)c2ccccc2s1`, the concentration for total growth inhibition (TGI) is 31.4 µM in the experiment with A498 renal; 5.68 µM with ACHN renal; 4.49 µM in the experiment with CAKI-1 renal; 4.05 µM in the experiment with HCT-116 colon; 41.3 µM in the experiment on HOP-62 NSCLC; 68.8 µM with HS 578T breast. In addition, the TGI is 41.2 µM in the experiment on IGROV1 ovarian, 8.18 µM with MCF7 breast, 3.32 µM with NCI-H522 lung and 32.3 µM in the experiment on SK-OV-3 ovarian.
Consider `Fc1ccc(-c2nn3ncccc3c2-c2ccnc(Nc3ccc4c(c3)OCCO4)n2)cc1`, for which the GI50 was 4040 nM in the experiment on A498 renal; 1160 nM in the experiment with ACHN renal; 891 nM in the experiment on CAKI-1 renal; 3050 nM with HCT-116 colon; 15200 nM with HOP-62 NSCLC; 2150 nM with HS 578T breast. The GI50 in the experiment on IGROV1 ovarian is 595 nM; in the experiment with MCF7 breast it was 2790 nM; in the experiment on NCI-H522 lung, 3560 nM; in the experiment with SK-OV-3 ovarian, 1230 nM. Moreover, the TGI in the experiment with A498 renal was 17.1 µM; in the experiment on ACHN renal it was above 25 µM; in the experiment with CAKI-1 renal, above 17.2 µM; in the experiment on HCT-116 colon, 7.09 µM; with HOP-62 NSCLC, above 25 µM; with HS 578T breast, above 23.2 µM. Besides, the TGI with IGROV1 ovarian was above 11.5 µM; in the experiment on MCF7 breast, above 25 µM; in the experiment with NCI-H522 lung, 10.7 µM; in the experiment with SK-OV-3 ovarian, above 25 µM.
`O=C(/C=C\n1cnc(-c2cc(C(F)(F)F)cc(C(F)(F)F)c2)n1)NNc1cnccn1`: the GI50 with A498 renal is 21.6 nM; with ACHN renal, 113 nM; with CAKI-1 renal, 41.4 nM; in the experiment with HCT-116 colon, 82.1 nM; in the experiment on HOP-62 NSCLC, 289 nM; in the experiment with HS 578T breast it was 231 nM. Besides, the GI50 with IGROV1 ovarian is 223 nM; in the experiment with MCF7 breast, 32.9 nM; in the experiment on NCI-H522 lung it was 128 nM; with SK-OV-3 ovarian, 643 nM. For the same compound, the TGI with A498 renal is 0.338 µM; with ACHN renal, 13 µM; in the experiment with CAKI-1 renal, 12 µM; in the experiment with HCT-116 colon, 12.4 µM; in the experiment on HOP-62 NSCLC it was 15.7 µM; in the experiment on HS 578T breast it was 25.7 µM. Moreover, the TGI in the experiment on IGROV1 ovarian worked out at 14.8 µM; in the experiment on MCF7 breast, 11.5 µM; with NCI-H522 lung it was 6.42 µM; with SK-OV-3 ovarian, 25.3 µM.
On to `CCCCN1CSC(=S)N(Cc2ccccc2)C1`, for which the TGI with A498 renal, in the experiment with ACHN renal, with CAKI-1 renal, in the experiment with HCT-116 colon, in the experiment with HOP-62 NSCLC and with HS 578T breast was above 100 µM in each case. The TGI in the experiment on IGROV1 ovarian was above 100 µM; in the experiment on MCF7 breast, above 100 µM; in the experiment with NCI-H522 lung it was above 71.8 µM; in the experiment on SK-OV-3 ovarian it was above 100 µM.
As for `COc1cc2c3c(n(CCNCCCNCCn4c5c(c6cc(OC)c(OC)cc6c4=O)C(=O)c4ccccc4-5)c(=O)c2cc1OC)-c1ccccc1C3=O`, the GI50 in the experiment on A498 renal was 3120 nM; with ACHN renal, 693 nM; in the experiment on CAKI-1 renal, above 100000 nM; with HCT-116 colon, 25.4 nM; with HOP-62 NSCLC, 61.4 nM; in the experiment with HS 578T breast, above 49000 nM. Also, the GI50 with IGROV1 ovarian is 52.3 nM; with MCF7 breast, 87.8 nM; in the experiment with NCI-H522 lung it was below 42.3 nM; with SK-OV-3 ovarian it was 7020 nM. Also, the TGI in the experiment with A498 renal was 14.5 µM; in the experiment with ACHN renal, above 56.3 µM; in the experiment on CAKI-1 renal, above 100 µM; in the experiment with HCT-116 colon, 1.16 µM; in the experiment with HOP-62 NSCLC, 1.9 µM; with HS 578T breast, above 100 µM. For the same compound, the total growth inhibition concentration (TGI) was found to be 9.57 µM in the experiment on IGROV1 ovarian, 2.9 µM in the experiment on MCF7 breast, 6.66 µM in the experiment with NCI-H522 lung and 32.2 µM in the experiment on SK-OV-3 ovarian.
As to `C/C(=N\Nc1ccc(Cl)cn1)c1ccccn1`, the GI50 in the experiment with A498 renal was 174 nM; with ACHN renal it was 42 nM; with CAKI-1 renal, 45.2 nM; in the experiment on HCT-116 colon, 20.1 nM; with HOP-62 NSCLC, 167 nM; in the experiment on HS 578T breast, 616 nM. The GI50 in the experiment with IGROV1 ovarian is 82.3 nM; with MCF7 breast, 98.9 nM; in the experiment on NCI-H522 lung, 39 nM; in the experiment with SK-OV-3 ovarian, 98 nM. The TGI was 1.05 µM with A498 renal; 27.1 µM in the experiment on ACHN renal; 2.64 µM in the experiment on CAKI-1 renal; above 33.8 µM in the experiment on HCT-116 colon; above 42.1 µM with HOP-62 NSCLC; above 73.8 µM in the experiment with HS 578T breast. Moreover, the TGI is 38.1 µM in the experiment with IGROV1 ovarian, above 100 µM with MCF7 breast, 9.99 µM in the experiment on NCI-H522 lung and 26.9 µM in the experiment with SK-OV-3 ovarian.
